In brackets after ≈: the same amount, converted by molar mass. Read-outs that look alike come from different tables or passages of the source.
Key:
Moraxella catarrhalis = test: MIC by two-fold serial agar dilution, Sensitivity Disk agar-N (Kitasato isolates); assay type: cell-based; details: Moraxella catarrhalis (22)
P. aeruginosa = test: MIC by two-fold serial agar dilution, quinolone-resistant strains; assay type: cell-based; details: Pseudomonas aeruginosa
[1] = test system: Staphylococcus epidermidis; test: MIC by NCCLS broth microdilution, 1100 Japanese clinical isolates 1997-1998; assay type: cell-based; details: for MIC50 / MIC90: Staphylococcus epidermidis
Citrobacter freundii = test: as above; assay type: cell-based
Shigella spp. = test: as above; assay type: cell-based; details: Shigella spp. (n=34)
Providencia rettgeri = test: as above; assay type: cell-based; details: Providencia rettgeri (n=12)
[2] = test system: Gram negative anaerobic pathogens and facultative anaerobic pathogens; test: MIC by agar dilution, Brucella HK agar with 5% laked sheep blood, anaerobic reference strains; assay type: cell-based
Proteus mirabilis = test: MIC by agar dilution (NCCLS), 322 nosocomial Gram negative isolates, Athens 1998; assay type: cell-based; details: Proteus mirabilis; n = 57 isolates
Enterobacter spp. = test: as above; assay type: cell-based; details: n = 57 isolates
Acinetobacter spp. = test: as above; assay type: cell-based; details: n = 38 strains
Hafnia alvei = test: MIC by agar dilution (NCCLS M7-A4), 288 enteropathogenic isolates, gemifloxacin and 15 other antimicrobials; assay type: cell-based; details: Hafnia alvei N= 32
Yersinia enterocolitica = test: as above; assay type: cell-based; details: Yersinia enterocolitica N= 22
Campylobacter jejuni = test: as above; details: for MIC: Campylobacter jejuni
[3] = Staphylococcus epidermidis oxacillin resistant (n=43)
[4] = Staphylococcus epidermidis oxacillin susceptible (n=35)
[5] = 24 h, read-out: MIC (mg/L) Range

`N[C@@H]1[C@H]2CN(c3nc4c(cc3F)c(=O)c(C(=O)O)cn4-c3ccc(F)cc3F)C[C@@H]12` [Trovafloxacin, trovafloxacin] was tested, and the MIC90 (Moraxella catarrhalis) was 0.031 µg/mL (≈ 0.0745 µM), the “MIC Range” value (Moraxella catarrhalis) was 0.016 to 0.031 µg/mL and the MIC (P. aeruginosa) was 1 µg/mL (≈ 2.4 µM). For the same compound, the “MIC Range” value [1, 3] was 0.032 to 8 µg/mL, the “MIC Range” value [1, 4] was no more than 0.008 to 2 µg/mL and the MIC50 [1, 3] was 1 µg/mL (≈ 2.4 µM). It also gave an MIC90 [1, 3] of 2 µg/mL (≈ 4.8 µM), an MIC50 [1, 4] of 0.032 µg/mL (≈ 0.0769 µM) and an MIC90 [1, 4] of 1 µg/mL (≈ 2.4 µM). For the same compound, the MIC50 (Citrobacter freundii; Citrobacter freundii) was 0.125 µg/mL (≈ 0.3 µM), the MIC90 (Citrobacter freundii; Citrobacter freundii (n=39)) was 2 µg/mL (≈ 4.8 µM) and the “MIC Range” value (Citrobacter freundii; Citrobacter freundii (n=39)) was no more than 0.008 to 4 µg/mL. For the same compound, the MIC50 (Shigella spp.) was no more than 0.008 µg/mL, the MIC90 (Shigella spp.) was 0.032 µg/mL (≈ 0.0769 µM) and the “MIC Range” value (Shigella spp.) was no more than 0.008 to 0.032 µg/mL. The MIC90 (Providencia rettgeri) was 8 µg/mL (≈ 19.2 µM), the “MIC Range” value (Providencia rettgeri) was 0.125 to 8 µg/mL and the MIC50 (Providencia rettgeri; read-out: MIC50) was 0.25 µg/mL (≈ 0.6 µM). It also gave an MIC [2] of 0.125 µg/mL (≈ 0.3 µM), an MIC ([2]; Bacteroides eggerthii, ATCC27754, Bacteroides eggerthii ATCC27754, read-out: MIC) of 0.5 µg/mL (≈ 1.2 µM) and an MIC ([2]; Bacteroides fragilis) of 0.125 µg/mL (≈ 0.3 µM). It also gave an MIC ([2]; Bacteroides fragilis GA-I0558) of 0.125 µg/mL (≈ 0.3 µM), an MIC ([2]; Bacteroides fragilis, ATCC25285) of 0.125 µg/mL (≈ 0.3 µM) and an MIC ([2]; Bacteroides fragilis, Bacteroides fragilis GA-I7955, read-out: MIC) of 0.25 µg/mL (≈ 0.6 µM). The MIC ([2]; Bacteroides fragilis, Bacteroides fragilis GAI10150, read-out: MIC) was 0.25 µg/mL (≈ 0.6 µM), the MIC ([2]; Bacteroides fragilis, Bacteroides fragilis GAI30079, read-out: MIC) was 0.5 µg/mL (≈ 1.2 µM) and the MIC ([2]; Bacteroides fragilis, Bacteroides fragilis GAI30144, read-out: MIC) was 0.25 µg/mL (≈ 0.6 µM). It also gave an MIC ([2]; Bacteroides fragilis, NCTC10581, Bacteroides fragilis NCTC10581, read-out: MIC) of 0.25 µg/mL (≈ 0.6 µM), an MIC ([2]; Bacteroides ovatus, ATCC8483, Bacteroides ovatus ATCC8483, read-out: MIC) of 0.5 µg/mL (≈ 1.2 µM) and an MIC ([2]; Bacteroides thetaiotaomicron, ATCC29741, Bacteroides thetaiotaomicron ATCC29741, read-out: MIC) of 0.5 µg/mL (≈ 1.2 µM). For the same compound, the MIC ([2]; Bilophilla wadsworthia WAL7959, read-out: MIC) was 0.5 µg/mL (≈ 1.2 µM), the MIC ([2]; Campylobacter gracilis, JCM8538, Campylobacter gracilis JCM8538, read-out: MIC) was no more than 0.03 µg/mL and the MIC ([2]; Campylobacter ureolyticus, NCTC10941, Bacteroides ureolyticus NCTC10941, read-out: MIC) was no more than 0.03 µg/mL. The MIC ([2]; Capnocytophaga ochracea, Capnocytophaga ochracea GAI5586, read-out: MIC) was no more than 0.03 µg/mL, the MIC ([2]; Fusobacterium necrophorum, ATCC25286, Fusobacterium necrophorum ATCC25286, read-out: MIC) was 0.25 µg/mL (≈ 0.6 µM) and the MIC ([2]; Fusobacterium nucleatum, ATCC25586, Fusobacterium nucleatum ATCC25586, read-out: MIC) was 0.5 µg/mL (≈ 1.2 µM). For the same compound, the MIC ([2]; Fusobacterium varium, ATCC8501, Fusobacterium varium ATCC8501, read-out: MIC) was 4 µg/mL (≈ 9.61 µM), the MIC ([2]; Hoylesella oralis, ATCC33269, Prevotella oralis ATCC33269, read-out: MIC) was 2 µg/mL (≈ 4.8 µM) and the MIC ([2]; Parabacteroides distasonis, ATCC8503, Bacteroides distasonis ATCC8503, read-out: MIC) was 0.5 µg/mL (≈ 1.2 µM). The MIC ([2]; Phocaeicola vulgatus, ATCC8482, Bacteroides vulgatus ATCC8482, read-out: MIC) was 0.5 µg/mL (≈ 1.2 µM), the MIC ([2]; Porphylomonas gingivalis ATCC33277, read-out: MIC) was no more than 0.03 µg/mL and the MIC ([2]; Porphyromonas asaccharolytica, ATCC25260) was 0.125 µg/mL (≈ 0.3 µM). It also gave an MIC ([2]; Prevotella bivia, ATCC29303, Prevotella bivia ATCC29303, read-out: MIC) of 2 µg/mL (≈ 4.8 µM), an MIC ([2]; Prevotella buccaeATCC33574, read-out: MIC) of 0.5 µg/mL (≈ 1.2 µM) and an MIC ([2]; Prevotella heparinolytica, ATCC35895) of 0.125 µg/mL (≈ 0.3 µM). For the same compound, the MIC ([2]; Sutterella wadsworthensis, ATCC51579, Sutterella wadsworthensis ATCC51579, read-out: MIC) was 0.25 µg/mL (≈ 0.6 µM), the MIC ([2]; Veillonella dispar, ATCC17748) was 0.125 µg/mL (≈ 0.3 µM) and the MIC ([2]; Veillonella parvula, ATCC10790, Veillonella parvula ATCC10790, read-out: MIC) was 0.25 µg/mL (≈ 0.6 µM). The MIC50 (Proteus mirabilis) was 0.25 µg/mL (≈ 0.6 µM), the MIC90 (Proteus mirabilis) was 16 µg/mL (≈ 38.4 µM) and the MIC50 (Enterobacter spp.; Enterobacter, read-out: MIC50) was 0.125 µg/mL (≈ 0.3 µM). For the same compound, the MIC90 (Enterobacter spp.; Enterobacter, read-out: MIC90) was 16 µg/mL (≈ 38.4 µM), the “MIC Range” value (Enterobacter spp.) was no more than 0.03 to 64 µg/mL and the MIC50 (Acinetobacter spp.; Acinetobacter) was 2 µg/mL (≈ 4.8 µM). The MIC90 (Acinetobacter spp.; Acinetobacter) was 16 µg/mL (≈ 38.4 µM), the “MIC Range” value (Acinetobacter spp.) was no more than 0.03 to 32 µg/mL and the MIC (Hafnia alvei; [5]) was 0.03 to 0.12 mg/L (≈ 0.0721 to 0.288 µM). The MIC (Hafnia alvei; read-out: MIC (mg/L) 50%) was 0.06 mg/L (≈ 0.144 µM), the MIC (Hafnia alvei; read-out: MIC (mg/L) 90%) was 0.06 mg/L (≈ 0.144 µM) and the MIC (Yersinia enterocolitica; [5]) was 0.015 to 0.25 mg/L (≈ 0.036 to 0.6 µM). For the same compound, the MIC (Yersinia enterocolitica; read-out: MIC (mg/L) 50%) was 0.06 mg/L (≈ 0.144 µM), the MIC (Yersinia enterocolitica; read-out: MIC (mg/L) 90%) was 0.06 mg/L (≈ 0.144 µM) and the “MIC (mg/L) Range” value (Campylobacter jejuni; Campylobacter jejuni N= 91) was no more than 0.015 to 32 mg/L. It also gave an MIC (Campylobacter jejuni; read-out: MIC (mg/L) 50%) of 8 mg/L (≈ 19.2 µM) and an MIC (Campylobacter jejuni; read-out: MIC (mg/L) 90%) of 8 mg/L (≈ 19.2 µM).

— patent publication EP1561465A2, “Methods of use of fluoroquinolone compounds against bacteria” (LG Life Sciences, Ltd., priority 1999, dated 2001)
